Here are results for 72 molecules from PubChem BioAssay AID179 (DTP/NCI, 2004).

As usually defined, the EC50 is the concentration needed to bring the measured effect to its halfway point. What is called IC50 is the concentration needed to halve the response being measured. The low end stands for higher potency, the high end for lower potency.

The test system of this assay is CEM cells HIV-1 protection, formazan growth assay. Briefly: NCI AIDS Antiviral Assay. The note with it: for IC50: measured here: growth of uninfected CEM cells. The essentials:
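CEM (human) cells, HIV-1 infected vs uninfected, 5-point dosing, formazan growth read-out. Retest threshold 50% protection.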

Activity calls are given as the source filed them.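 How the source made its calls: active means compounds giving half or more protection of infected cells from virus-caused growth loss, again on retest; inactive means the rest.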

`CCc1cc(-c2nsc(=O)o2)c(S(=O)(=O)CC)s1`: the EC50 was more than 200 µM and the IC50 is 93.3 µM.

With `O=S1(=O)CC2C1C1(c3ccccc3)OC2(c2ccccc2)c2ccccc21` (stereo not given), the EC50 was more than 200 µM and the IC50 was 20 µM.

As for `CN/N=C(/Cc1occc(=O)c1O)C(=O)Nc1ccc(C)c(C)c1`, the EC50 was more than 288 µM and the half-maximal inhibitory concentration (IC50) was more than 288 µM.

Take `CCC(=O)C(C)C(=O)C(=O)C(=O)OC` (stereo not given): the EC50 is more than 13.5 µM and the IC50 was more than 13.5 µM.

Consider `CCC1OC2C(CC=C(C)C)=C3OC(C)(O)C(C)(CC)C(O)C3=C3OC(=O)C=C1C32` (stereo not given), for which the EC50 was more than 200 µM and the half-maximal inhibitory concentration (IC50) was 30.9 µM.

Regarding `COc1ccc(-c2c3c(n(C4OC(CO)C(O)C(O)C4O)c(=S)c2C#N)CCCC3)cc1` (stereo not given), the EC50 is more than 200 µM and the IC50 came to 55 µM.

Consider `O=C(CCc1nc(=S)[nH][nH]1)Nc1ccccc1Cl`, for which the EC50 is more than 457 µM and the half-inhibitory concentration (IC50) was more than 457 µM.

Turning to `COc1ccc(Cc2c(=O)[nH]nc3ccccc23)cc1`, the EC50 is more than 70.8 µM and the IC50 was more than 70.8 µM.

`CC(C)OC1=C(CC2(C)OCCO2)C(=O)C12OCCO2`: the EC50 was more than 200 µM and the half-inhibitory concentration (IC50) was more than 200 µM.

Regarding `O=c1oc2ccccc2c(-c2ccc(O)cc2)c1Oc1ccc(Cl)cc1`, the outcome was inactive.

In the case of `CN(C)c1ccc(C=C2C(=O)c3ccccc3C2=O)cc1`, the result was inactive.

Consider `CC1CC(C)CN(Cc2cccnc2)C1` (stereo not given), for which the result was inactive.

Turning to `CC(C)(C)C(=O)/C=C/c1cccc([N+](=O)[O-])c1`, the EC50 is more than 58.9 µM and the 50% inhibitory concentration (IC50) is 8.71 µM.

Regarding `O=[N+]([O-])c1cccc(N=Cc2ccc(Cl)cc2)c1`, the EC50 was more than 200 µM and the IC50 was found to be 123 µM.

Regarding `Cc1cn(CC2=NCC(C)N2)c(=O)[nH]c1=O` (stereo not given), the EC50 was more than 200 µM and the IC50 is more than 200 µM.

`Nc1nc(N)c(N=O)c(N)n1`: the EC50 is more than 200 µM and the half-inhibitory concentration (IC50) amounted to 170 µM.

As to `CCO/N=C\c1c2c(O)c3c(O)c(C)c4c(c3c1O)C(=O)C(C)(O/C=C\C(OC)C(C)C(OC(C)=O)C(C)C(O)C(C)C(O)C(C)/C=C\C=C(\C)C(=O)N2)O4` (stereo not given), the EC50 is more than 151 µM and the IC50 was found to be 8.13 µM.

In the case of `N#CC12C3C4CC5C6C4C1C6C(O)(C53)N2Cc1ccccc1` (stereo not given), the EC50 was more than 447 µM and the concentration for half-maximal inhibition (IC50) amounted to 257 µM.

`COc1ccc(N2C(=O)C3c4[nH]c5ccc(C)cc5c4C4CCC(C(C)(C)C)CC4C3C2=O)cc1` (stereo not given): the concentration giving a half-maximal response (EC50) is 12 µM and the IC50 is 47.9 µM.

For `COc1ccccc1NC(=O)C(CC(C(=O)Nc1ccccc1OC)/C(C)=N/Nc1ccc([N+](=O)[O-])cc1[N+](=O)[O-])/C(C)=N/Nc1ccc([N+](=O)[O-])cc1[N+](=O)[O-]` (stereo not given), the EC50 was more than 9.12 µM and the 50% inhibitory concentration (IC50) is more than 9.12 µM.

Regarding `Cc1sc2nc3n(c(=O)c2c1C)N=C(c1ccccc1)CS3`, the EC50 was more than 200 µM and the IC50 is more than 200 µM.

For `CCOc1ccc(/C=N/NC(=O)C(=O)N/N=C/c2ccc(OCC)c(OCC)c2)cc1OCC`, the EC50 was more than 200 µM and the 50% inhibitory concentration (IC50) was more than 200 µM.

`Nc1ccc2oc(=O)ccc2c1`: the EC50 was more than 1260 µM and the IC50 was found to be 8.91 µM.

Turning to `CCCCCC(/C=C/[C@@H]1[C@@H](C(O)CCCCCC(=O)OC)C(=O)C[C@H]1O[Si](C)(C)C(C)(C)C)OCOCCOC` (stereo not given in full), the outcome was inactive.

In the case of `COc1ccccc1-n1c(=O)n(C)c(=O)n1C(C)(C)C`, the EC50 was more than 200 µM and the IC50 is more than 200 µM.

As for `CC12CCCC(O)C1CCC1=CC3(CCC12)SCCS3` (stereo not given), the EC50 is more than 12 µM and the IC50 was more than 12 µM.

Consider `CC(=O)O[C@H]1CCC2[C@@H]3CCC4Nc5[nH]ncc5C[C@]4(C)C3CC[C@@]21C` (stereo not given in full), for which the result was inactive.

`CCCCCCCCCC=C(c1cc(Cl)c(O)c(C(=O)O)c1)c1cc(Cl)c(O)c(C(=O)O)c1`: the EC50 was 45.7 µM and the IC50 was 49 µM.

In the case of `O=C1c2ccccc2Sc2ccccc2N1CCCCCCN1CCN(c2ccc(F)cc2)CC1`, the EC50 is more than 200 µM and the IC50 stood at 10.5 µM.

With `CC1=N/C(=C\c2ccccc2Br)C(=O)O1`, the EC50 was more than 97.7 µM and the IC50 is more than 97.7 µM.

As to `C/C=C1\CC(C(=O)OCC)CCCCCCC1=O` (stereo not given), the EC50 was more than 200 µM and the IC50 amounted to 17.4 µM.

Turning to `CC1CCCN2C(=O)CN(N3CCOCC3)CC(=O)N12` (stereo not given), the EC50 was more than 200 µM and the concentration for half-maximal inhibition (IC50) is more than 200 µM.

With `COC1/C=C/OC2(C)Oc3c(C)c(O)c4c(O)c(cc(OCC(=O)N(C)C(C)C)c4c3C2=O)NC(=O)/C(C)=C/C=C/C(C)C(O)C(C)C(O)C(C)C(OC(C)=O)C1C` (stereo not given), the EC50 is more than 200 µM and the IC50 worked out at 38 µM.

Turning to `COc1cc(C(=O)/C=C/c2ccccc2O)ccc1O`, the EC50 is more than 132 µM and the IC50 is 102 µM.

On to `CCCCC[C@@H]1CCCC2C1CC[C@@H](CC/C=C/C(=O)OC)N2C(=O)OC(C)C(Cl)(Cl)Cl` (stereo not given in full), for which the outcome was inactive.

On to `COC(=O)CSc1cc(Cl)c(C)cc1S(=O)(=O)Nc1n[nH]c(N)n1`, for which the EC50 was more than 200 µM and the IC50 is more than 200 µM.

On to `C=CCC(C(=O)Nc1cccc2[nH]cnc12)C(=O)OCC` (stereo not given), for which the EC50 was more than 200 µM and the IC50 was 195 µM.

For the molecule `CN(C)c1nc(=Nc2ccc3c(c2)OCO3)ss1`, the result was inactive.

As to `CC(=Nc1ccccc1C(=O)[O-])c1c([O-])ccc2c(C)cc(=O)oc12.[OH3+].[OH3+].[OH3+].[Zn+2]`, the EC50 is more than 2.29 µM and the IC50 was more than 2.29 µM.

For the molecule `Nc1nc(-c2ccco2)cc(-c2ccc(CO)o2)n1`, the EC50 is more than 195 µM and the concentration for half-maximal inhibition (IC50) was found to be 107 µM.

Consider `O=C1CCCCCCCCCCC1Sc1ccccc1` (stereo not given), for which the EC50 was more than 12.3 µM and the IC50 is more than 12.3 µM.

As for `O=Nc1c(O)cc(Nc2ccc(Br)cc2)c2ccccc12`, the EC50 was more than 200 µM and the half-inhibitory concentration (IC50) came to 39.8 µM.

For `O=C(Cc1nc(-c2ccccc2)cc(=O)n1-c1ccccc1Cl)c1ccncc1`, the EC50 is more than 1.35 µM and the IC50 is more than 1.35 µM.

As for `O=c1[nH]c(-c2ccccc2)nc2c1sc1nc3ccccc3n12`, the EC50 was more than 50.1 µM and the half-inhibitory concentration (IC50) is more than 50.1 µM.

As for `CC(C)(c1ccc(Oc2ccc(C#N)c(C#N)c2)cc1)c1ccc(Oc2ccc(C#N)c(C#N)c2)cc1`, the EC50 was more than 10.7 µM and the IC50 was more than 10.7 µM.

For `CN1C/C(=C\c2ccc(Cl)cc2)C(=O)/C(=C/c2ccc(Cl)cc2)C1`, the EC50 was more than 200 µM and the IC50 is 0.417 µM.

With `CC1(C)CC2(S(=O)(=O)c3ccccc3)ON1CC2S(=O)(=O)c1ccccc1` (stereo not given), the outcome was inactive.

On to `O=C(NCCCl)c1cc(C(F)(F)F)cc(C(F)(F)F)c1`, for which the outcome was inactive.

Consider `CC(C)c1ccc(O)c(=O)cc1`, for which the outcome was inactive.

On to `CC(=O)NNc1nc(C)c(C(/C=C/c2ccccc2O)=N/N=C(N)N)s1`, for which the EC50 is more than 89.1 µM and the concentration for half-maximal inhibition (IC50) was more than 89.1 µM.

In the case of `CCCC[PH+](CCCC)CCCC.[C-]#[O+].[C-]#[O+].[C-]#[O+].[C-]#[O+].[Fe]`, the EC50 was more than 200 µM and the IC50 was more than 200 µM.

Consider `CCCN(CCCc1ccccc1)CCc1ccc2[nH]c(=S)[nH]c2c1`, for which the EC50 was more than 200 µM and the half-inhibitory concentration (IC50) came out at 35.5 µM.

For `CSC1=Nc2ccccc2-c2nc(-c3ccccc3)cc(-c3ccccc3)c2C1`, the EC50 was more than 200 µM and the IC50 is more than 200 µM.

Consider `CCNC(=S)N/N=C(/c1ccc(OC)cc1)P(=O)(OCC)OCC`, for which the EC50 is more than 50.1 µM and the IC50 is more than 50.1 µM.

`CCOC(=O)Nc1cc2c(c(N)n1)N=C(c1ccc(Cl)cc1Cl)CN2`: the EC50 was more than 10 µM and the IC50 is 0.017 µM.

Take `CCCCCCCCCCCCSC(=S)c1c(C)[nH]n(-c2ccccc2)c1=O`: the EC50 is more than 42.7 µM and the half-maximal inhibitory concentration (IC50) came out at 15.8 µM.

Consider `Cc1nc2c(=O)[nH]c3ccccc3c2o1`, for which the EC50 is more than 200 µM and the half-inhibitory concentration (IC50) was more than 200 µM.

For the molecule `O=C(O)CSCc1cc2c(O)c(c1)Cc1cc(CSCC(=O)O)cc(c1O)Cc1cc(CSCC(=O)O)cc(c1O)Cc1cc(CSCC(=O)O)cc(c1O)C2`, the EC50 was more than 22.4 µM and the IC50 is more than 22.4 µM.

As for `CCN1C(=O)C(=O)OC1=C(c1ccccc1)c1ccccc1`, the outcome was inactive.

As for `O=C(O)c1ccccc1-c1c2ccc(=O)c(I)c-2oc2c(I)c(O)ccc12`, the EC50 is more than 316 µM and the half-inhibitory concentration (IC50) worked out at 19.1 µM.

In the case of `COC1CC(OC2C(C)OC(OC3C(C)OC(OC4C(O)CC(O[C@H]5CC[C@@]6(C)C(=CC[C@]7(O)[C@@H]6C[C@@H](OC(=O)/C=C/c6ccccc6)[C@@]6(C)[C@]7(O)CC[C@@]6(O)C(C)=O)C5)OC4C)CC3OC)CC2OC)OC(C)C1O` (stereo not given in full), the EC50 is more than 200 µM and the IC50 was 37.2 µM.

Turning to `O=c1[nH]cnc2cccc(Cl)c12`, the EC50 was more than 200 µM and the IC50 is more than 200 µM.

On to `S=c1sc2c(s1)SCc1cccc(n1)CSc1sc(=S)sc1SCc1cccc(n1)CS2`, for which the EC50 is more than 200 µM and the concentration for half-maximal inhibition (IC50) is more than 200 µM.

Consider `CN(C)CC1CCc2ccccc2C1=O` (stereo not given), for which the result was inactive.

With `COc1cc2c(c(OC)c1OC)C(=O)[C@@H](O)[C@H]2N`, the EC50 was more than 200 µM and the IC50 was more than 100 µM.

Regarding `C=CC[C@@H]1C(=O)[C@@]2(O[Si](C(C)C)(C(C)C)C(C)C)CC[C@@H]1C[C@H]2NC(=O)OCC(Cl)(Cl)Cl`, the EC50 is more than 200 µM and the half-inhibitory concentration (IC50) is more than 200 µM.

On to `C/C=C/COC(=O)CO[N+](=O)[O-]`, for which the outcome was inactive.

In the case of `COC(=O)CCC(=O)Nc1cccc(C(F)(F)F)c1`, the EC50 was more than 129 µM and the IC50 was more than 129 µM.

`O=C(/C=C/c1ccc(Cl)c(Cl)c1)c1ccccc1Cl`: the EC50 was more than 2.4 µM and the IC50 was more than 2.4 µM.

For `COC(=O)c1cc(OC(C)=O)c2c(OC)ccc(OC)c2c1`, the result was inactive.

For the molecule `c1ccc2c(c1)OCc1nccn1-2`, the EC50 is more than 200 µM and the IC50 is 97.7 µM.

`CC(/C=C/c1ncccc1OCCCCCC(=O)O)=N\NC1=NCCN1`: the EC50 is more than 69.2 µM and the IC50 was more than 69.2 µM.
